No end group written: not given here.
The substances below were run against T1, angiotensin-converting enzyme (ACE) (Homo sapiens, UniProt P12821) (assay: ACE inhibition assay (ACE Activity Assay kit, fluorogenic substrate)). Details: fluorogenic substrate, 37 °C, fluorescence (ex 320/em 405 nm) every minute for 5 min, five concentrations; value ± SD, n = 2; read-out: IC50 for ACE inhibition.
T1 construct: purchased Sigma-Aldrich CS0002
Type: biochemical
Protocol: ACE inhibitory activity was evaluated using the ACE Activity Assay test (Sigma-Aldrich CS0002, Saint Louis, MI, USA). This assay is based on the hydrolysis of angiotensin I by ACE to yield active angiotensin II. This test uses a synthetic fluorogenic peptide as the substrate, and the resulting fluorescence is proportional to ACE activity. Briefly, all reagents were diluted in the assay buffer, according to the manufacturer’s instructions. A total of 10 µL of peptide sample and positive control (captopril PHR1307, Sigma-Aldrich, Saint Louis, MI, USA), diluted in assay buffer at five different concentrations, and negative control (assay buffer) were pipetted into the wells of a 96-well black opaque plate. Then, 40 µL of ACE, provided in the kit, was added to sample and control wells. Sample blanks consisted of 50 µL of assay buffer. A standard curve was prepared in 100 µL assay buffer per well ranging from 0 to 8 nmol for calculating enzymatic activity. Subsequently, 50 µL of fluorogenic substrate warmed to 37 °C was added to experimental, control and blank sample wells. The reaction was carried out at 37 °C and fluorescence was read every minute for 5 min in a microplate reader (Biotek Synergy HTX, Winooski, VT, USA). The absorbance of excitation and emission were set at 320 nm and 405 nm, respectively. All determinations were done in duplicate. Linear regressions were determined to calculate the enzymatic activity for each sample dose.
One unit is defined as the amount of enzyme that releases one nmol of fluorescent substrate in 1 min at 37 °C. The results were expressed as milliunits of enzyme (mU). Finally, the IC50 of each peptide sample and captopril was determined using regression analysis of the corresponding dose–response curves. […] This value was expressed as µM.

T1 sequence (P12821 30-1306, species assumed): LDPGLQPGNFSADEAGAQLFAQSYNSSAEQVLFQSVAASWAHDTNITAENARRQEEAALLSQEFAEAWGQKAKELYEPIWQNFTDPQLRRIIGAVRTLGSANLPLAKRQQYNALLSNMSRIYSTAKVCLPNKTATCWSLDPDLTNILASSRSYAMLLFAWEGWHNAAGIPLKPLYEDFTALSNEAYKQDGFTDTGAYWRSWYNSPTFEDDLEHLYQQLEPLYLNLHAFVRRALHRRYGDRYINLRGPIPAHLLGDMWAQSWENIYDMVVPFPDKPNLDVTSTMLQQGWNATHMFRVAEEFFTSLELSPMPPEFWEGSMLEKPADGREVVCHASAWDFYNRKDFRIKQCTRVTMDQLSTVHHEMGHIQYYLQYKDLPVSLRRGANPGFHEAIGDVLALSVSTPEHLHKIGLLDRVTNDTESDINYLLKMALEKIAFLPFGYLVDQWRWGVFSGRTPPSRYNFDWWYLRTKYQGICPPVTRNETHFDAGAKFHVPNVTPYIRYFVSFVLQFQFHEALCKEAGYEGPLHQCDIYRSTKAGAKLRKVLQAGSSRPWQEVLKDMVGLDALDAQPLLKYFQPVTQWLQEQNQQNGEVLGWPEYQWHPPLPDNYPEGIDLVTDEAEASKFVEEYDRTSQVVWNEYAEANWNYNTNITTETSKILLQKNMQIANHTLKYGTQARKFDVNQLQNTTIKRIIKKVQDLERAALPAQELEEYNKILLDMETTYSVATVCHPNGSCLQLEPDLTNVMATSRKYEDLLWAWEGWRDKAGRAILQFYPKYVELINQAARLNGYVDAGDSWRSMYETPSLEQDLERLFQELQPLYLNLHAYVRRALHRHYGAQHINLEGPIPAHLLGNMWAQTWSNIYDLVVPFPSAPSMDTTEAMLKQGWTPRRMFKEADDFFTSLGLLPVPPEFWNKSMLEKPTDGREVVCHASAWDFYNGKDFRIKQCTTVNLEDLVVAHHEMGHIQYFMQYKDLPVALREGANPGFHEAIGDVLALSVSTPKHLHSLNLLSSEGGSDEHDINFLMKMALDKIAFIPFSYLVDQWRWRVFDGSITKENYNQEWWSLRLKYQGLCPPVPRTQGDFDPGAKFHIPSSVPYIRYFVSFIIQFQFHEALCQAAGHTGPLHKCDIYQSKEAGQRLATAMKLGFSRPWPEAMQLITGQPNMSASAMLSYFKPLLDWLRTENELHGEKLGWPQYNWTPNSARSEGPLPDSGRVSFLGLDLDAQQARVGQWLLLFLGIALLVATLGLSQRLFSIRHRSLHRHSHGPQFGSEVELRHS

Going from FNQLAALNSAAYLQQQQLLPFSQLA-NH2 [19ZP1] to QLADVSPAAFLTQQQLLPFYLHAM-NH2 [19ZP2], the IC50 rises from 14.19 ± 0.12 µM to 174 ± 49.6 µM (12-fold). The first is the more potent here.

AYLQAQQLLPFNQLVRSPAA-NH2 [19ZP3] showed an IC50 of 202 ± 0.63 µM.

Same assay, conditions: own IC50 values converted to mg/mL for comparison with the literature; read-out: IC50 for ACE inhibition expressed in mg/mL (converted)

Compared with FNQLAALNSAAYLQQQQLLPFSQLA-NH2 [19ZP1], QLADVSPAAFLTQQQLLPFYLHAM-NH2 [19ZP2] is 12-fold higher in IC50: 14.4 µM for the first, 174 µM for the second.

With AYLQAQQLLPFNQLVRSPAA-NH2 [19ZP3] the IC50 was 202 µM.

Source: publication PMC7699256, “In Silico Analysis and In Vitro Characterization of the Bioactive Profile of Three Novel Peptides Identified from 19 kDa α-Zein Sequences of Maize” (Molecules, 2020)
